Measurements from patent US6881584B1, “Infrared thermography” (SmithKline Beecham Corporation, priority 1998, dated 2005).

Legend:
intrascapular region = assay: Intrascapular thermogenesis in inbred mouse strains on high and low fat diets; type: in vivo, mice; conditions: 1 mg/kg i.p., 60 min
Protocol: (§1) Male AKR/J, C57BL/6J, and SWR/J mice were purchased from 4-8 weeks of age from Jackson Laboratories (Bar Harbor, Me.). Mice were fed high and low fats diets containing high sucrose as defined by Surwit et al., (Metabolism 44(5):645-651 (1995)). After 14 weeks on these diets, the intrascapular fur was shaved, the animals were dosed (intraperitineal) with 1 mg/kg of BRL37344, and the animals were anesthetized with isofluorane. Nude mice (BALB/C) were 6-8 weeks old and were dosed with inhalant two times before thermal profiling. The Lewis rat strain (200-250 g) were used for both the MED and inflammation experiments. Infrared thermographic images and temperature calculations were recorded using an Agema Thermovision 900 Infrared System.
One environmental component that alters the metabolic rate in individuals with a genetic predisposition towards diabetes, dyslipidemia, or obesity is diet. It was unknown if thermography could be used to measure the effects of diet on drug-induced changes in heat production in animals with different genotypes. Thus, three different inbred strains of mice, AKR/J, C57BL/6J, and SWR/J, were maintained on high and low fat diets for 14 weeks before treating with the β3-adrenoceptor agonist, BRL37344. The heat produced in the intrascapular region was measured before and after 60 min treatment using infrared thermography. […] Thus, this technique may be used to select, rank order for the efficacy and potency of compounds with the, desired properties for a given environment or genetic background. Similarly, this technique can be used to identify, rank, and select animals and environmental factors with the desired properties for a given drug candidate.

[1] = tested on: interscapular brown adipose tissue (IBAT); assay: IBAT thermogenesis in ob/ob mice, shaved or skin replaced with IR transparent adhesive; type: in vivo; conditions: 0.01-1 mg/kg i.g., 1 hour
Protocol: FIG. 28. Interscapular brown adipose tissue (IBAT) thermogenesis in ob/ob mice 1 hour after treatment with the […]-adrenoceptor agonist BRL37344 detected by IR thermography. Ten week old male ob/ob mice (Jackson Labs, Bar Harbor, Me.) were housed 5 animals/cage at 72° F. and 50% relative humidity with a 12 h light and dark cycle. They were fed chow diet (NIH R&M/Auto 6F-Ovals 5K67, PMI Feeds® Inc., Richmond, Ind.) and water ad libitum. Mice were dosed at 0.0, 0.01, 0.1, 0.3, or 1 mg/kg BRL37344 in water vehicle (0.25 mL i.g.; n=20 per dose). All animals were anesthetized with isofluorane and shaved to expose the area of interest prior to IR scanning. […] Images were recorded at 1 min intervals for 5 min with a frame averaging rate of 32 frames/sec. Acquired images were analyzed for average temperatures using an in-house image processing software application (Roboimage). Data are expressed as either average temperature/area or delta temperature/area (drug treated-vehicle treated).
The top panels show IR images of the interscapular regions of mice whose skin was removed and Bioclusive adhesive covering placed over the IBAT or mice who have been shaved only following treatment with BRL37344 at the doses indicated for 1 hour. Quantification of IR signal in the IBAT region is shown in the bottom panel. […]

C3H10T1/2 adipocytes [2] = assay: Lipolysis in adipocytes treated with β-AR-agonists; type: cell-based; conditions: adipocytes, dose response; read-out: EC50 (nM) Lipolysis
Protocol: (§2) Human subcutaneous adipocytes were purchased from Zen-Bio, Inc. (Research Triangle Park, N.C.). C3H10T1/2 clone 8 fibroblasts were differentiated into adipocytes as previously described (Lenhard et al, Biochem. Pharmacol. 54:801-808 (1997), Paulik and Lenhard, Cell Tissue Res. 290:79-87 (1997)). After 7 days in culture, triglyceride accumulation was determined by adding lipoprotein lipase and GPO-Trinder reagent (assay kit 337-B, Sigma Diagnostics, St. Louis, Mo.) to the cells (50 μl/cm^2) and incubating the lysates at 37° C. for 2 hours. The optical density was measured using a spectrophotometer set at a wavelength of 540 nm. Lipolysis was measured as previously described (Lenhard et al, Biochem. Pharmacol. 54:801-808 (1997)).
(§3) As a control, the effects of β-AR-agonists on lipolysis was also measured. […] In general, this expands to measuring thermogenic activity of both catabolic and anabolic mediated-effects of potential drug candidates.

C3H10T1/2 adipocytes [3] = assay: Infrared thermography of thermogenesis in cultured adipocytes (β-AR-agonists); type: cell-based; conditions: for stimulation of thermogenesis: C3H10T1/2 adipocytes; for EC50: adipocytes, infrared thermography, dose response, read-out: EC50 (nM) Thermogenesis
Protocol: as §2
Heat generation was measured using a Stirling cooled Agema Thermovision 900 Infrared System AB (Marietta, Ga.) equipped with a SW Scanner and 40°×25° lens which detects a 2-5.4 micron spectral response. […] The focal distance was 6 cm. Images were captured using a recurs function set at 16 or an averaging function set at 32. The data was analyzed using OS-9 advanced systems and ERIKA 2.00 software according to the manufacturer's specifications (FLIR Infrared Systems AB, Danderyd, Sweden). Thermography of adipocytes was performed by maintaining the ambient temperature of the cultured cells at 37±0.02° C. using a Queue Systems Inc. (Parkersburg, W.Va.) incubator, model QWJ500SABA. Spectral analysis of yeast was performed at 30±0.02° C. using the same incubator system. After treating the cells with experimental agents (e.g., rotenone etc.), the temperature was equilibrated for 10 minutes in the incubator before measuring real time thermogenesis for all microtiter plate applications. Various color scales in the visible wavelength were used to depict the temperature fluctuations of the recorded images. Although temperature scales are constant, the color scale images are variable and can be adjusted with level and span controls.
The β3-AR-agonists are candidate therapeutic agents for the treatment of diabetes and obesity. Although, the mechanism of action for these agents is thought to involve increased metabolic rate (Scarpace, Ann. N.Y. Acad. Sci. 813:111-116 (1997)), it has yet to be shown that β-AR-agonists increase heat output by adipocytes. Therefore, it was determined whether infrared imaging could be used to monitor the effects of β-AR-agonists on thermogenesis in cultured adipocytes.
as §3

yeast = type: cell-based
Protocol: Heat generation was measured using a Stirling cooled Agema Thermovision 900 Infrared System AB (Marietta, Ga.) equipped with a SW Scanner and 40°×25° lens which detects a 2-5.4 micron spectral response. […] The focal distance was 6 cm. Images were captured using a recurs function set at 16 or an averaging function set at 32. The data was analyzed using OS-9 advanced systems and ERIKA 2.00 software according to the manufacturer's specifications (FLIR Infrared Systems AB, Danderyd, Sweden). […] Spectral analysis of yeast was performed at 30±0.02° C. using the same incubator system. After treating the cells with experimental agents (e.g., rotenone etc.), the temperature was equilibrated for 10 minutes in the incubator before measuring real time thermogenesis for all microtiter plate applications. Various color scales in the visible wavelength were used to depict the temperature fluctuations of the recorded images. Although temperature scales are constant, the color scale images are variable and can be adjusted with level and span controls.

human adipocytes = assay: Infrared thermography of human adipocytes in 96-well plates; type: cell-based; conditions: dose response, relative to untreated cells
Protocol: Heat generation was measured using a Stirling cooled Agema Thermovision 900 Infrared System AB (Marietta, Ga.) equipped with a SW Scanner and 40°×25° lens which detects a 2-5.4 micron spectral response. […] The focal distance was 6 cm. Images were captured using a recurs function set at 16 or an averaging function set at 32. The data was analyzed using OS-9 advanced systems and ERIKA 2.00 software according to the manufacturer's specifications (FLIR Infrared Systems AB, Danderyd, Sweden). Thermography of adipocytes was performed by maintaining the ambient temperature of the cultured cells at 37±0.02° C. using a Queue Systems Inc. (Parkersburg, W.Va.) incubator, model QWJ500SABA. […] After treating the cells with experimental agents (e.g., rotenone etc.), the temperature was equilibrated for 10 minutes in the incubator before measuring real time thermogenesis for all microtiter plate applications. Various color scales in the visible wavelength were used to depict the temperature fluctuations of the recorded images. Although temperature scales are constant, the color scale images are variable and can be adjusted with level and span controls.

C3H10T1/2 cells = assay: Infrared thermography of heat production in differentiating C3H10T1/2 cells (PPARγ agonists); type: cell-based; conditions: Mus musculus, C3H 10T1/2, in the presence of insulin and 9-cis retinoic acid (FIG. 7), read-out: EC50(μM), thermogenesis and lipogenesis assays
Protocol: as §2
Heat generation was measured using a Stirling cooled Agema Thermovision 900 Infrared System AB (Marietta, Ga.) equipped with a SW Scanner and 40°×25° lens which detects a 2-5.4 micron spectral response. […] The focal distance was 6 cm. Images were captured using a recurs function set at 16 or an averaging function set at 32. The data was analyzed using OS-9 advanced systems and ERIKA 2.00 software according to the manufacturer's specifications (FLIR Infrared Systems AB, Danderyd, Sweden). […] Various color scales in the visible wavelength were used to depict the temperature fluctuations of the recorded images. […]

whole back = assay: Infrared thermography of drug-induced thermogenesis in humans; type: in vivo, human; conditions: 60 minutes after 0.6-0.7 mg/kg
Protocol: The effect of ephedrine on thermogenesis in two human subjects was detected by infrared Imaging 60 minutes after treatment with ephedrine at a dose of 0.6-0.7 mg/kg. […] Thus, infrared thermography can be used as a non-invasive surrogate assay to evaluate the efficacy, potency, pharmacokinetics, pharmocodynamics of drugs in clinical studies.

limb inflammation = assay: PGPS arthritis model, limb thermogenesis; type: in vivo, rat
Protocol: as §1
Arthritis is a disease characterized by inflammation of the joints and can be treated with antiinflammatory agents. Because inflammatory responses are associated with increased thermogenesis at the site of the response, arthritis and the efficacy of arthritis drugs can be monitored by thermography. […] The other limb was not treated. […] Thus, infrared thermography is a useful tool for monitoring inflammatory responses and the efficacy of antiinflammatory agents as well as providing a method for screening, selecting and evaluating the effectiveness of drug candidates for treating arthritic indications.

Q: Which “thermogenic response, high vs low fat diet” value (intrascapular region; AKR/J mice (obesity prone)) does the source give for `C[C@H](Cc1ccc(OCC(=O)O)cc1)NC[C@H](O)c1cccc(Cl)c1` [BRL37344] here?
A: greater thermogenic response to BRL37344 when fed the higher fat diet

Q: What about the “thermogenic response, high vs low fat diet” value (intrascapular region; C57BL/6J mice) of the same compound?
A: little difference in the thermogenic response

Q: And the “thermogenic response, high vs low fat diet” value (intrascapular region; SWR/J mice (obesity resistant))?
A: greater thermogenic response when fed the lower fat diet

Q: And the IBAT thermogenesis ([1]; shaved only)?
A: thermogenesis increased

Q: And the IBAT thermogenesis ([1]; skin removed (peelback) and Bioclusive adhesive)?
A: demonstrate a dose-response

Q: `C[C@H](Cc1ccc2c(c1)OC(C(=O)[O-])(C(=O)[O-])O2)NC[C@H](O)c1cccc(Cl)c1.[Na+].[Na+]` [CL316253] was tested. Which EC50 (C3H10T1/2 adipocytes [2]) did it give?
A: 7.9 nM

Q: And the “thermogenesis versus treatment time” value (C3H10T1/2 adipocytes [3]; 15 min vs 18 hours treatment)?
A: greater after 15 min than after 18 hours

Q: What about the stimulation of thermogenesis (C3H10T1/2 adipocytes [3]) of the same compound?
A: stimulated

Q: And the EC50 (C3H10T1/2 adipocytes [3])?
A: 8.9 nM

Q: And the “dose dependence of thermogenic effect” value (C3H10T1/2 adipocytes [3]; dose range 0.8-100 nM)?
A: dose dependent thermogenic effect

Q: What does the source list for `N#CC(C#N)=NNc1ccc(OC(F)(F)F)cc1` [FCCP, carbonyl cyanide p-(trifluoromethoxy)phenylhydrazone]?
A: thermogenesis in yeast (yeast): stimulated heat production; thermogenesis in human adipocytes (human adipocytes): stimulated heat production

Q: How did the EC50 (C3H10T1/2 adipocytes [3]; Mus musculus, C3H 10T1/2) turn out when `CC[C@H]1/C=C/C=C/C[C@@H](C)[C@H](O)[C@@](C)(O)C(=O)[C@@H](C)[C@H](O)[C@@H](C)C(=O)[C@@H](C)[C@H](O)[C@@H](C)/C=C/C(=O)O[C@@H]2[C@H](C)[C@H](CC1)O[C@]1(CC[C@H](C)[C@H](C[C@@H](C)O)O1)[C@H]2C` [Oligomycin] was run?
A: 9.2 nM

Q: For `COc1ccc(CCNCC(O)COc2ccc(O)c(O)c2)cc1OC` (stereo not shown) [RO363], which EC50 (C3H10T1/2 adipocytes [2]) is on record?
A: 1000 nM

Q: What about the stimulation of thermogenesis (C3H10T1/2 adipocytes [3]) of the same compound?
A: less effective than CL316243 or isoproterenol

Q: What about the EC50 (C3H10T1/2 adipocytes [3]) of the same compound?
A: 956 nM

Q: How did the “effect on β3-AR-mediated thermogenesis” value (C3H10T1/2 adipocytes [3]; 100 μM) turn out when `C[C@@H]1C[C@@H]([C@H](O)CC2CC(=O)NC(=O)C2)C(=O)[C@@H](C)C1` [cycloheximide] was run?
A: had no effect

Q: For `O=C1NC(=O)C(Cc2ccc3c(c2)CC[C@H](Cc2ccccc2)O3)S1` (stereo partly shown) [englitazone], which EC50 (C3H10T1/2 cells) is on record?
A: > 10 µM

Q: What does the source list for `CN[C@@H](C)[C@H](O)c1ccccc1` [ephedrine]?
A: Delta T (whole back; subject A): 0.63 °C; Delta T (whole back; subject B): 0.46 °C

Q: `C[C@]12C=CC(=O)C=C1CC[C@@H]1[C@@H]2[C@@H](O)C[C@@]2(C)[C@H]1CC[C@]2(O)C(=O)CO` [prednisolone] was tested. Which “thermogenesis of arthritic limb after treatment” value (limb inflammation; PGPS arthritis model, 6 mg/kg p.o.) did it give?
A: reverses the elevation in thermogenesis

Q: Which “thermogenesis of injected limb vs untreated limb” value (limb inflammation; limb injected for two weeks) does the source give for peptidoglycan polysaccharide [PGPS] here?
A: higher level of thermogenesis in the treated limb than in the untreated limb
